Patent publication US9476064B2, “Neuro-progenitor produced from an SCNT-derived ES cell” (H. Bion Co., Ltd., priority 2003, dated 2016)

System: nucleus-transferred oocytes
Test: Development of nucleus-transferred oocytes after reprogramming and chemical activation
Type: cell-based, human
Details: then 2.0 mM 6-DMAP, reprogramming time 2 hour, G1.2 then SNUnt-2, 16 oocytes
From the text: Since a sperm-mediated activation, which is one of the major factors for a normal embryonic development, was absent in case of the nucleus-transferred oocyte obtained in Example 2, an artificial stimulus was needed instead. In order to determine the optimum conditions for artificial embryogenesis, therefore, nucleus-transferred oocytes were reprogrammed, activated and in vitro cultured under various conditions as shown in Tables 2 to 4.
Such nucleus-transferred oocytes were washed several times with the G1.2 medium, transferred to the G1.2 medium containing 2.0 mM 6-DMAP (Sigma Co., St. Louis, Mo., U.S.A.) and, then, cultured at 37° C., 5% CO2, 5% O2 and 90% N2 for 4 hours. After these activation steps, the nucleus-transferred oocytes were in vitro cultured under the same condition.

In the case of C[C@H](CCC(=O)O)C[C@H](C)C[C@H](C)C(=O)/C=C(\O)[C@H](C)C[C@H](C)C/C=C/[C@@H](C)[C@@H](O)[C@@H](C)[C@@H](O)C[C@@H]1CC[C@@](C)([C@H]2CC[C@@](C)([C@@H](C)O)O2)O1 [ionomycin], the “No. of nucleus-transferred oocytes developed to 2-cell stage” value (5 μM) is reported as 9, the “No. of nucleus-transferred oocytes developed to blastocyst” value (5 μM) is reported as 0 and the “No. of nucleus-transferred oocytes developed to morula” value (5 μM) is reported as 0. The “No. of nucleus-transferred oocytes developed to 2-cell stage” value (10 μM) was 12, the “No. of nucleus-transferred oocytes developed to blastocyst” value (10 μM) was 0 and the “No. of nucleus-transferred oocytes developed to morula” value (10 μM) was 0.
